Consider 29 molecules from patent US20250115583A1, “BICYCLIC INDAZOLE GLUCOCORTICOID RECEPTOR ANTAGONISTS” (Corcept Therapeutics Incorporated, priority 2021, published 2025).

This experiment concerns the target glucocorticoid receptor (Homo sapiens (Human), UniProt P04150). In words: HepG2 TAT assay: inhibition of dexamethasone-induced tyrosine aminotransferase (TAT) activity. It is filed as cell-based. The conditions noted are these: HepG2 cells, challenge of 100 nM dexamethasone, 18-24 hr; IC50 converted to Ki by Cheng and Prusoff equation. How it is done:
Glucocorticoid mediated activation of TAT occurs by transactivation of glucocorticoid response elements in the TAT promoter by glucocorticoid receptor-agonist complex.
HepG2 cells were cultured using MEME media supplemented with 10% (v/v) foetal bovine serum; 2 mM L-glutamine and 1% (v/v) NEAA at 37° C., 5%/95% (v/v) CO2/air.
Compounds were serially half log diluted in 100% (v/v) dimethylsulphoxide from a 10 mM stock.
HepG2 cells were then lysed with 30 μl of cell lysis buffer containing a protease inhibitor cocktail for 15 minutes at 4° C. […] After 2 hours incubation at 37° C. the reaction was terminated by the addition of 15 μl of 10M aqueous potassium hydroxide solution, and the plates incubated for a further 30 minutes at 37° C.
[compound] and fitting the data to a 4 parameter logistic equation.

glucocorticoid receptor, sequence (P04150 whole entry): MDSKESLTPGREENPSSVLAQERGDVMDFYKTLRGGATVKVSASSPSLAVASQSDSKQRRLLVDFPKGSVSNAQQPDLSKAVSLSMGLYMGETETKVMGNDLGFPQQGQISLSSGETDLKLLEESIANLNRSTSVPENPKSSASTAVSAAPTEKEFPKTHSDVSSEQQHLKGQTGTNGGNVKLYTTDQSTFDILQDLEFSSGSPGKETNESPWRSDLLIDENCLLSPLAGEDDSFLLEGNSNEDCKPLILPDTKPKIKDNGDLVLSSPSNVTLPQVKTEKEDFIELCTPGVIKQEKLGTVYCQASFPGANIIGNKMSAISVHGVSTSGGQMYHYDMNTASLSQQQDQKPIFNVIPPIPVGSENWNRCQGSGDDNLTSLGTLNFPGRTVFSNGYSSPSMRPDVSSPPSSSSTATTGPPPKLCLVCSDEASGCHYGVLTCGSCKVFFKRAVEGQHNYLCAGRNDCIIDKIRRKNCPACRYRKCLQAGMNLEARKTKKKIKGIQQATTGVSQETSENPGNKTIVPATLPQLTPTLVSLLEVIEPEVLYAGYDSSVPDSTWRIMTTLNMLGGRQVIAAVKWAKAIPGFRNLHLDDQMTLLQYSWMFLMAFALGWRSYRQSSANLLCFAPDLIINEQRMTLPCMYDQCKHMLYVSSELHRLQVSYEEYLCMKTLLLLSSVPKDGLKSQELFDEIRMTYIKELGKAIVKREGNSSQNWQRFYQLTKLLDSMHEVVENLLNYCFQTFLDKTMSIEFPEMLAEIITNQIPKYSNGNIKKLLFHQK

As to `Cc1cc2c(cnn2-c2ccc(F)cc2)cc1[C@]12CN(S(=O)(=O)CC3CC3)C[C@H]1[C@@H]2c1ccccc1` [Example 93], the Ki (commonly the dissociation constant of the complex between target and ligand, obtained from inhibition or displacement) came out at 0.029 µM. This lies in the double-digit nanomolar range. In the case of `Cc1cc2c(cnn2-c2ccc(F)cc2)cc1C12CC(=O)CC1CN(C(=O)OC(C)(C)C)C2` (centres unmarked) [Example 1, tert-butyl 3a-(1-(4-fluorophenyl)-6-methyl-1H-indazol-5-yl)-5-oxohexahydrocyclopenta[c]pyrrole-2(1H)-carboxylate] it was 0.37 µM; in that of `Cc1cc2c(cnn2-c2ccc(F)cc2)cc1[C@@]12CN(c3ncccn3)C[C@@H]1[C@H]2c1ccccc1` (stereo in doubt) [Example 185, 1-(4-fluorophenyl)-6-methyl-5-(6-phenyl-3-(pyrimidin-2-yl)-3-azabicyclo[3.1.0]hexan-1-yl)-1H-indazole], 0.1 µM.

For the molecule `Cc1cc2c(cnn2-c2ccc(F)cc2)cc1[C@@]12CN(S(=O)(=O)c3cnn(C)n3)C[C@@H]1[C@H]2COc1ccccc1` (stereo in doubt) [Example 49, 1-(4-fluorophenyl)-6-methyl-5-(3-((2-methyl-2H-1,2,3-triazol-4-yl)sulfonyl)-6-(phenoxymethyl)-3-azabicyclo[3.1.0]hexan-1-yl)-1H-indazole], the inhibition constant Ki is 0.12 µM. Under `Cc1cc2c(cnn2-c2ccc(F)cc2)cc1[C@@]12CN(S(C)(=O)=O)C[C@@H]1[C@H]2c1ccccc1` [Example 77] stands 0.039 µM; under `Cc1cc2c(cnn2-c2ccc(F)cc2)cc1[C@@]12CN(C(=O)N3CCCC3)C[C@@H]1[C@H]2c1ccccc1` (single isomer, unassigned) [Example 126, (1-(1-(4-fluorophenyl)-6-methyl-1H-indazol-5-yl)-6-phenyl-3-azabicyclo[3.1.0]hexan-3-yl)(pyrrolidin-1-yl)methanone], 0.034 µM. `Cc1cc2c(cnn2-c2ccc(F)cc2)cc1[C@@]12CN(C(=O)c3ccc(F)cn3)C[C@@H]1[C@H]2c1ccccc1` (single isomer, unassigned) [Example 152, (1-(1-(4-fluorophenyl)-6-methyl-1H-indazol-5-yl)-6-phenyl-3-azabicyclo[3.1.0]hexan-3-yl)(5-fluoropyridin-2-yl)methanone] showed a Ki of 0.02 µM. In the case of `Cc1cc2c(cnn2-c2ccc(F)cc2)cc1[C@@]12CN(C(=O)c3ccc(C#N)cc3)C[C@@H]1[C@H]2c1ccccc1` (stereo in doubt) [Example 115, 4-(1-(1-(4-fluorophenyl)-6-methyl-1H-indazol-5-yl)-6-phenyl-3-azabicyclo[3.1.0]hexane-3-carbonyl)benzonitrile] it was 0.036 µM. Take `Cc1cc2c(cnn2-c2ccc(F)cc2)cc1[C@@]12CN(C(=O)c3cccc(F)c3)C[C@@H]1[C@H]2c1ccccc1` (stereo in doubt) [Example 117, (3-fluorophenyl)(1-(1-(4-fluorophenyl)-6-methyl-1H-indazol-5-yl)-6-phenyl-3-azabicyclo[3.1.0]hexan-3-yl)methanone]: the inhibition constant Ki was determined as 0.034 µM. Molecule `Cc1cc2c(cnn2-c2ccc(F)cc2)cc1[C@@]12CN(C(=O)c3cccc(C#N)c3)C[C@@H]1[C@H]2c1ccccc1` (stereo in doubt) [Example 114, 3-(1-(1-(4-fluorophenyl)-6-methyl-1H-indazol-5-yl)-6-phenyl-3-azabicyclo[3.1.0]hexane-3-carbonyl)benzonitrile] came in with an inhibition constant Ki of 0.026 µM.

On to `Cc1cc2c(cnn2-c2ccc(F)cc2)cc1C12CN(S(=O)(=O)c3cnn(C)n3)CC1C2c1ncco1` (centres unmarked) [Example 133, 2-(1-(1-(4-fluorophenyl)-6-methyl-1H-indazol-5-yl)-3-((2-methyl-2H-1,2,3-triazol-4-yl)sulfonyl)-3-azabicyclo[3.1.0]hexan-6-yl)oxazole], for which the affinity, expressed as Ki, was 0.26 µM.

`Cc1cc2c(cnn2-c2ccc(F)cc2)cc1[C@]12CN(S(=O)(=O)N3CCOCC3)C[C@H]1[C@@H]2c1ccccc1` [Example 87] displayed an inhibition constant Ki of 0.02 µM. Compared with the last molecule, the Ki is about 13-fold lower. In turn, `Cc1cc2c(cnn2-c2ccc(F)cc2)cc1[C@@]12CN(Cc3ccccn3)C[C@@H]1[C@H]2c1ccccc1` (stereo in doubt) [Example 179, 1-(4-fluorophenyl)-6-methyl-5-(6-phenyl-3-(pyridin-2-ylmethyl)-3-azabicyclo[3.1.0]hexan-1-yl)-1H-indazole] displayed an inhibition constant (Ki) of 0.048 µM. In the case of `COC1(c2ccccc2)CC2CN(S(=O)(=O)c3ccn(C)n3)CC2(c2cc3cnn(-c4ccc(F)cc4)c3cc2C)C1` (centres unmarked) [Example 31] it was 0.13 µM. `Cc1cc2c(cnn2-c2ccc(F)cc2)cc1[C@@]12CN(C(=O)c3ccccc3F)C[C@@H]1[C@H]2c1ccccc1` (single isomer, unassigned) [Example 128, (2-fluorophenyl)(1-(1-(4-fluorophenyl)-6-methyl-1H-indazol-5-yl)-6-phenyl-3-azabicyclo[3.1.0]hexan-3-yl)methanone] yielded a Ki of 0.0059 µM. As to `Cc1cc2c(cnn2-c2ccc(F)cc2)cc1[C@@]12CN(S(=O)(=O)c3cnn(C)n3)C[C@@H]1[C@H]2C(=O)N1CCCC1` (stereo in doubt) [Example 55, (1-(1-(4-fluorophenyl)-6-methyl-1H-indazol-5-yl)-3-((2-methyl-2H-1,2,3-triazol-4-yl)sulfonyl)-3-azabicyclo[3.1.0]hexan-6-yl)(pyrrolidin-1-yl)methanone], the inhibitory constant (Ki) turned out to be 0.3 µM. With `Cc1cc2c(cnn2-c2ccc(F)cc2)cc1[C@@]12CN(C(=O)c3ncnn3C)C[C@@H]1[C@H]2c1ccccc1` (single isomer, unassigned) [Example 170, (1-(1-(4-fluorophenyl)-6-methyl-1H-indazol-5-yl)-6-phenyl-3-azabicyclo[3.1.0]hexan-3-yl)(1-methyl-1H-1,2,4-triazol-5-yl)methanone], the inhibitory constant (Ki) is 0.041 µM.

In turn, `Cc1cc2c(cnn2-c2ccc(F)cc2)cc1[C@@]12CN(C(=O)c3cc(C#N)ccn3)C[C@@H]1[C@H]2c1ccccc1` (single isomer, unassigned) [Example 149, 2-(1-(1-(4-fluorophenyl)-6-methyl-1H-indazol-5-yl)-6-phenyl-3-azabicyclo[3.1.0]hexane-3-carbonyl)isonicotinonitrile] came in with an inhibitory constant (Ki) of 0.013 µM. In the case of `Cc1cc2c(cnn2-c2ccc(F)cc2)cc1[C@@]12CN(S(=O)(=O)C3COC3)C[C@@H]1[C@H]2c1ccccc1` (single isomer, unassigned) [Example 140, 5-(3-(oxetan-3-ylsulfonyl)-6-phenyl-3-azabicyclo[3.1.0]hexan-1-yl)-1-(4-fluorophenyl)-6-methyl-1H-indazole] it was 0.065 µM. As to `Cc1cc2c(cnn2-c2ccc(F)cc2)cc1[C@@]12CN(C(=O)OC3CCOCC3)C[C@@H]1[C@H]2c1ccccc1` (single isomer, unassigned) [Example 125, tetrahydro-2H-pyran-4-yl 1-(1-(4-fluorophenyl)-6-methyl-1H-indazol-5-yl)-6-phenyl-3-azabicyclo[3.1.0]hexane-3-carboxylate], the inhibitory constant (Ki) was found to be 0.029 µM. Under `Cc1cc2c(cnn2-c2ccc(F)cc2)cc1[C@@]12CN(S(=O)(=O)N(C)C)C[C@@H]1[C@H]2c1ccccc1` [Example 108] stands 0.016 µM; under `Cc1cc2c(cnn2-c2ccc(F)cc2)cc1[C@]12CN(S(=O)(=O)c3cnn(C)c3)C[C@H]1[C@@H]2c1cccc(Cl)c1` [Example 96], 0.11 µM.

In turn, `Cc1cc2c(cnn2-c2ccc(F)cc2)cc1C12CN(S(=O)(=O)c3cnn(C)c3)CC1CC(F)(c1ccccc1)C2` (centres unmarked) [Example 4, 5-(5-fluoro-2-((1-methyl-1H-pyrazol-4-yl)sulfonyl)-5-phenylhexahydrocyclopenta[c]pyrrol-3a(1H)-yl)-1-(4-fluorophenyl)-6-methyl-1H-indazole] came in with a Ki of 0.54 µM.

`CC(=O)NC[C@@H]1[C@H]2CN(S(=O)(=O)c3cnn(C)n3)C[C@@]12c1cc2cnn(-c3ccc(F)cc3)c2cc1C` (racemic) [Example 135, N-((1-(1-(4-fluorophenyl)-6-methyl-1H-indazol-5-yl)-3-((2-methyl-2H-1,2,3-triazol-4-yl)sulfonyl)-3-azabicyclo[3.1.0]hexan-6-yl)methyl)acetamide] registered an inhibition constant (Ki) of 0.3 µM. In the case of `Cc1cc2c(cnn2-c2ccc(F)cc2)cc1[C@@]12CN(S(=O)(=O)c3cnn(C)n3)C[C@@H]1[C@H]2C(=O)Nc1ccc(F)cn1` (stereo in doubt) [Example 56, 1-(1-(4-fluorophenyl)-6-methyl-1H-indazol-5-yl)-N-(5-fluoropyridin-2-yl)-3-((2-methyl-2H-1,2,3-triazol-4-yl)sulfonyl)-3-azabicyclo[3.1.0]hexane-6-carboxamide] it was 0.038 µM; in that of `Cc1cc2c(cnn2-c2ccc(F)cc2)cc1[C@@]12CN(C(=O)c3ccc(C4CC4)cn3)C[C@@H]1[C@H]2c1ccccc1` (single isomer, unassigned) [Example 167, (5-cyclopropylpyridin-2-yl)(1-(1-(4-fluorophenyl)-6-methyl-1H-indazol-5-yl)-6-phenyl-3-azabicyclo[3.1.0]hexan-3-yl)methanone], 0.021 µM. `Cc1cc2c(cnn2-c2ccc(F)cc2)cc1[C@]12CN(S(=O)(=O)c3cnn(C)n3)C[C@H]1[C@@H]2C(=O)NC1CCC1` [Example 60] came in with a Ki of 0.2 µM. In the case of `Cc1cc2c(cnn2-c2ccc(F)cc2)cc1[C@@]12CN(S(=O)(=O)c3ccccc3)C[C@@H]1[C@H]2c1ccccc1` [Example 89] it was 0.017 µM; in that of `Cc1nc(C(=O)N2C[C@@H]3[C@@H](c4ccccc4)[C@]3(c3cc4cnn(-c5ccc(F)cc5)c4cc3C)C2)cs1` (single isomer, unassigned) [Example 153, (1-(1-(4-fluorophenyl)-6-methyl-1H-indazol-5-yl)-6-phenyl-3-azabicyclo[3.1.0]hexan-3-yl)(2-methylthiazol-4-yl)methanone], 0.038 µM.
